Experimental findings from ChEMBL document CHEMBL1821602, “The Use of 3,5,4'-Tri-O-acetylresveratrol as a Potential Pro-drug for Resveratrol Protects Mice from γ-Irradiation-Induced Death” (ACS Med Chem Lett, 2011) are described below.

The species entered for data set [1] is Mus musculus. Nature of the data set: Radioprotective activity against 0 to 7 Gy gamma radiation-induced death in mouse 32Dcl3 cells at 10 uM treated 1 hr prior to irradiation after 7 days by microscopy. The format is functional, cell-based.
In data set [2] the test system is Mus musculus. Nature of the data set: Radioprotective activity against 9.75 Gy gamma radiation-induced death in C57BL/6NHsd mouse assessed as survival rate at 10 mg/kg, ip administered 10 mins prior to irradiation. The format is functional.
In data set [3] the test system is Mus musculus. Nature of the data set: Radioprotective activity against 9.75 Gy gamma radiation-induced death in C57BL/6NHsd mouse assessed as increase in survival rate at 1 mg/kg, ip administered 10 mins prior to irradiation. Further details: dose 1 mg/kg. The format is functional, organism-based.
The subject of data set [4] is Mus musculus. Nature of the data set: Radioprotective activity against 9.75 Gy gamma radiation-induced death in C57BL/6NHsd mouse assessed as increase in survival rate at 25 mg/kg, ip administered 10 mins after irradiation daily for 4 days. The format is functional, organism-based. Further details: dose 25 mg/kg.
In data set [5] the test system is Serum. Nature of the data set: Metabolic stability in mouse serum assessed as hydrolysis to resveratrol with in 20 secs by HPLC analysis. The note with it: 20 s. The format is ADME, cell-free.
Data set [6] in a line: Metabolic stability in mouse serum assessed as half life in presence of 1:1:8 mixture of EtOH/Cremophor EL/H2O by HPLC analysis. The format is ADME, cell-free.
Data set [7] is described as follows: Stability of the compound assessed as half life. The format is physicochemical.
Data set [8] deals with Serum. Nature of the data set: Metabolic stability in mouse serum up to 27 hrs by HPLC analysis. The format is ADME, cell-free.

The source made the active and inactive calls. No cut-off for these calls is given here.

One may read the half-life as how long it takes for the measured level to halve.

`CCCOC(=O)c1cc(O)c(O)c(O)c1`: the result in data set [1] was inactive.

In the case of `CC(=O)Oc1ccc(/C=C/c2cc(OC(C)=O)cc(OC(C)=O)c2)cc1` [TRIACETYLRESVERATROL], the Activity in data set [2] (route intraperitoneal) was 80%. Besides, the result in data set [3] and in data set [4] was inactive. Also, in data set [5], the Stability entry is “Unstable”. The half-life in data set [6] was determined as 48 min.

As to `O=C(O[C@@H]1Cc2c(O)cc(O)cc2O[C@H]1c1ccc(O)c(O)c1)c1cc(O)c(O)c(O)c1`, the result in data set [1] was inactive.

On to `Oc1ccc(/C=C/c2cc(O)cc(O)c2)cc1` [RESVERATROL], for which the result in data set [1] was Active. In addition, in data set [7], the half-life was 8 min. Also, the outcome in data set [2], in data set [3] and in data set [4] was inactive. The Stability result in data set [8] was “Stable”.
